In US9725752B2, “Resonator and process for performing biological assay” (THE UNITED STATES OF AMERICA, AS REPRESENTED BY THE …, priority 2015, dated 2017):

How the values were obtained:
Type in all cases: cell-based
[1] = system: Escherichia coli (E. coli) cells; assay: Phase noise of piezoelectric resonator with adhered microbes exposed to antibiotic; conditions: for time frame in which the resonator method detects antimicrobial action against live E. coli cells: preliminary experiments; for PSDs of the acoustic resonators when the antibiotic was introduced: spectral power 4 Hz to 20 Hz, FIG. 35, FIG. 36
Protocol: An acoustic article was prepared to detect microbial viability through measurements of phase noise of a resonator on which microbes were adhered. An acoustic article was prepared by combining a piezoelectric resonator (commercially available from Biolin Scientific, model Q-Sense) and custom fabricated components that interfaced to the piezoelectric resonator. The piezoelectric resonator included an electrical contact to a piezoelectric crystal. […] One side of the piezoelectric crystal faced a fluid chamber and was coated with a thin layer of poly-L-lysine (PLL) to promote adhesion of microbes to the surface. The piezoelectric resonator was disposed on an aluminum platform that incorporated electrical lines to the resonator, and the platform was placed on a thermally controlled platform held at a constant temperature of approximately 37° C. Phosphate-buffered saline (PBS) was introduced to the fluid chamber, and electronics configured according to FIG. 30 and FIG. 31 were used to determine the resonant frequency of the resonator by varying the output frequency from frequency source 200 while monitoring the amplitude of the RF output from amplifier 222. The output frequency of the CW voltage from the frequency source was then set to this measured resonant frequency. Subsequently, averaged power spectral densities of phase noise from the resonator were determined from the measured time-varying voltage from phase-noise detector 106 passed to vector signal analyzer 206, through the use of a calibration of phase-noise detector 106. Following acquisition of this background spectrum, Escherichia coli (E. coli) cells were suspended in PBS and flowed through the fluid chamber over the crystal for five minutes. The chamber was then drained of fluid and refilled with Luria-Bertani (LB) broth to provide nutrients for bacterial growth. E. coli adhered to the crystal surface during this sequence, and unattached cells were washed away.
Power spectral densities (PSDs) were repeatedly acquired over a period beginning 30 minutes before ampicillin in LB was introduced to the crystal and ending 68 minutes after this introduction of ampicillin. Before the acquisition of each averaged spectrum, the output of frequency source 200 was retuned to the current frequency of the resonator while monitoring the output of amplifier 222. […] The background PSD in PBS has been subtracted from these spectra.
To provide a scalar quantity reflective of the measured PSDs, the spectra in FIG. 33 and similar spectra at other times during the experiment were integrated over the frequency range from 3 Hz to 20 Hz. This quantity, which is the total spectral power over this frequency range, is plotted in FIG. 34 as a function of time.
Simultaneous control measurements of PSDs were also acquired on a second piezoelectric crystal with the same sequence of introduction of fluids, except that the effector fluid contained no ampicillin. With this control crystal, PSDs increased continuously during the entire experiment.
The acoustic article, electronic circuitry, data acquisition procedures, and fluid-analyte processing steps described in Example 1 were used to probe the effect of an antibiotic, polymyxin B, on phase noise generated by E. coli Here, two identical resonators (“Crystal A” and “Crystal B”) were used in which Crystal B was not exposed to polymyxin B until more than 40 minutes after introduction of polymyxin B to Crystal A.
Measurements of PSDs of the first resonator (Crystal A) before and after exposure of E. coli to polymyxin B are shown in FIG. 35. […] Data from second resonator Crystal B with E. coli not exposed to polymyxin B during 0-40 minutes are shown in FIG. 36 and labelled as “Crystal B,” wherein data labelled as “Crystal A” are data taken in presence of polymyxin B during 0-40 minutes and later.

[2] = system: Escherichia coli (E. coli) cells; assay: Optical microscope images of cell density on the crystal
[3] = system: Escherichia coli (E. coli) cells; assay: Plating of cells collected from the crystal for enumeration of colony-forming units (CFUs); conditions: LB-agar plates, growth at least 24 hours; for number of CFUs relative to a parallel sample not exposed to antibiotic: cells collected from crystal
From the text: To confirm the action of the antibiotic on E. coli viability, cells were collected from the surface of the crystal and plated after serial dilution onto LB-agar plates for enumeration of colony-forming units (CFUs).
To confirm the action of the antibiotic on E. coli viability, cells were collected from the surface of the resonators (Crystal A and Crystal B) and plated after serial dilution onto LB-agar plates for enumeration of colony-forming units (CFUs).

Row | Compound | spectral power of phase noise soon after introduction of antibiotic ([1]; PSD integrated 3 Hz to 20 Hz, E. coli on PLL-coated crystal in LB, approx. 37° C., FIG. 34) | time after introduction of antibiotic at which spectral power began dropping towards the background level ([1]; PSD integrated 3 Hz to 20 Hz, FIG. 34) | time frame in which the resonator method detects antimicrobial action against live E. coli cells [1] | PSDs of the acoustic resonators when the antibiotic was introduced [1] | cell density after introduction of antibiotic ([2]; period beginning 30 min after introduction of ampicillin, FIG. 34) | number of CFUs relative to a parallel sample not exposed to antibiotic [3] | disintegration of E. coli cells [2] | CFUs recovered from treated resonators ([3]; FIG. 37)
1 | CC1(C)S[C@@H]2[C@H](NC(=O)[C@H](N)c3ccccc3)C(=O)N2[C@H]1C(=O)O [ampicillin] | essentially leveled off | approximately 30 minutes | within a one-hour time frame | dropped dramatically | dropped as a result of lysing and disintegration of cells | several log decrease | – | –
2 | polymyxin B | – | – | within a one-hour time frame | dropped dramatically | – | greater than several log decrease | does not induce a disintegration | no CFUs were recovered
